In ChEMBL document CHEMBL6087484, “Discovery of Novel Small-Molecule Inhibitors Disrupting the MTDH-SND1 Protein-Protein Interaction” (J Med Chem, 2025):

Tested on: MCF7
Experiment: Anti-proliferative activity against human MCF7 cells assessed as cell viability measured after 72 hrs by CCK8 assay
Conditions: MCF7, 72 h

| SMILES | IC50 [nM] |
| --- | --- |
| O=S(=O)(Nc1cccc2cccnc12)c1cccc2cccnc12 | 901 |
| COc1cc(NS(=O)(=O)c2cccc3cccnc23)c2ncccc2c1 | 2350 |
| O=S(=O)(Nc1cc(Cl)cc2cccnc12)c1cccc2cccnc12 | 1170 |
| O=S(=O)(Nc1cccc2cc(Br)cnc12)c1cccc2cccnc12 | 4380 |
| Cc1ccc2cccc(NS(=O)(=O)c3cccc4cccnc34)c2n1 | > 10000 |
| COc1ccc(Cl)cc1S(=O)(=O)Nc1cccn2ncnc12 | > 10000 |
| CC(C)N1CCN(c2ccc(NS(=O)(=O)c3cccc4cccnc34)c3ncccc23)CC1 | 6420 |
| O=S(=O)(Nc1cccc2cc(Nc3ccccc3)cnc12)c1cccc2cccnc12 | > 10000 |
| O=S(=O)(Nc1ccc(Cl)c2cccnc12)c1cccc2cccnc12 | 2890 |
| O=S(=O)(Nc1ccc(Br)c2cccnc12)c1cccc2cccnc12 | 2190 |
| O=S(=O)(Nc1cc(Br)cc2cccnc12)c1cccc2cccnc12 | 2110 |
